# According to patent US8962600B2, “Neuroprotective compounds and their use” (The Medical College of Wisconsin, Inc., priority 2009, dated 2015):
# Assays:
# [1] = tested on: subchronic MPTP mouse model; assay: Subchronic MPTP mouse model, striatal neurotransmitters by HPLC-EC (Example 2); type: in vivo; conditions: for protection against subchronic MPTP-induced depletion of striatal dopac levels / protection against subchronic MPTP-induced depletion of striatal dopamine levels: MPTP 20 mg/kg i.p. 5 days
# Procedure: The triphenylphosphonium-conjugated apocynin analogue, Mito-apocynin, acts as a potent mitochondrial targeted antioxidant (MTA). The nigrostriative dopaminergic neurons undergo destruction in a slow and progressive manner in idiopathic PD. In order to mimic this condition in a preclinical mouse model, a subchronic MPTP mouse model was developed. The mouse model used here was similar to that used in Example 3 below. Mice were treated with Mito-apocynin (3 mg/kg, oral gavage) for 1 day followed by subchronic MPTP (20 mg/kg, i.p.) administration for 5 days. Animals were sacrificed 7 days after the last dose of MPTP (Mito-apocynin was administered during the 7 days). Striatal neurotransmitters (dopamine, dopac) were analyzed by HPLC-EC. Similar experiments were performed with apocynin (20 mg/kg, oral gavage; lower doses were also tested but not effective).
# IL-10 = assay: LPS-induced IL-10 release in primary microglia, LUMINEX immunoassay; type: cell-based, mouse; conditions: apocynin 100 μM, LPS 24 hr
# Procedure: (§1) Primary microglia were obtained from 1-2 day old C57/b16 mouse pups. Upon collection, whole brains were kept in ice-cold DMEM-F12 medium containing 10% FBS, 1× sodium pyruvate, 1× NEAAs, 100 units pen/strep, and Q. After collection, the brains were placed in 0.25% trypsin-EDTA and incubated at 37° C., with gentle shaking every 5-10 min. After 30 min, the trypsin was removed, and the brains are washed in warmed medium twice. After washing, medium was added to the brains, and the brains were homogenized using gentle pipetting, starting with a 25 ml pipette and moving to smaller pipette tips as the brains were broken up. When the brains were sufficiently homogenized to a single-cell suspension, they were filtered with a 70 μm nylon filter, which allowed microglia and astrocytes to be collected. The resultant cell suspension was plated in T-75 flasks and allowed to grow for 12-14 days at 37° C., 5% CO2. […]
# (§2) Cytokine levels of BV2 and microglial cells treated with diapocynin were determined by LUMINEX® multiplex immunoassay. […]
# (§3) Cytokine standards and controls were adjusted to 40 μl volume and the LUMINEX® Samples were run on a LUMINEX® 200 Total System and analyzed with Multiplex Analysis—LUMINEX® Software (Invitrogen, Carlsbad, Calif.).
# TNF-α = assay: LPS-induced TNF-α release in primary microglia, LUMINEX immunoassay; type: cell-based, mouse; conditions: apocynin 100 μM, LPS 24 hr
# Procedure: as §1, §2, §3
# IL-12 = assay: LPS-induced IL-12 release in primary microglia, LUMINEX immunoassay; type: cell-based, mouse; conditions: apocynin 100 μM, LPS 24 hr
# Procedure: as §1, §2, §3
# G93A mice = conditions: apocynin 300 mg/kg; cited from earlier work
# BV2 microglial cells = assay: LPS-induced iNOS activation (nitrite, Griess reagent) in BV2 microglial cells; type: cell-based, mouse; conditions: 30 min pretreatment, Griess reagent
# Procedure: Two cell models of neuroinflammation were used to evaluate the anti-neuroinflammatory property of diapocynin including the mouse BV2 microglial cell line, as well as primary microglia isolated from mouse brains. BV2 cells were obtained from the American Tissue Culture Collection. BV2 cells were maintained in RPMI containing 10% FBS and 100 units of pen/strep at 37° C. and 5% CO2. For treatments, RPMI containing 2% FBS and 100 units of pen/strep was used.
# Inducible nitric oxide synthase (iNOS or NOS2) activation was assessed by measuring nitrite levels using Griess reagent in a 96-well format (70-72). Each well contained 40,000 BV2 cells or 100,000 primary microglia. BV2 cells were cultured in 150 μl of RPMI containing 10% FBS and pen/strep, and the primary microglia were cultured in DMEM-F12 containing 10% FBS, pen/strep, sodium pyruvate (S/P), Q, and NEAAs. One day after culturing, cells were replaced with 150 μl of their respective complete media containing only 2% FBS. Both cell types were pretreated with diapocynin (10 μM) and apocynin (100 μM) for 30 min before LPS stimulation (1 μg/ml LPS for BV2 cells and 100 ng/ml for primary microglia), and the plates were incubated at 37° C. After 24 hr at 37° C., 100 μl of supernatant were removed and placed into a new 96 well plate, to which 100 μl of Griess reagent were added. The plate was shaken on a plate shaker for 10 min before being read in a plate reader at 540 nm.
# This example generally followed the cell culture, treatment, and analysis steps of Example 4 above.
# Diapocynin diacetate (diapodiacetate or diapo diace) suppresses LPS-induced NOS-2 in BV2 microglial cells (FIG. 21). BV-2 cells were plated in 96 well plates, 40,000 cells per well, and treated in 150 μl of RPMI containing 2% heat inactivated FBS and penicillin/streptomycin. Diapo diacetate was used on the cells as a 30 min pretreatment, then LPS (1 μg/ml) was added. All treatments were allowed to incubate at 37° C. for 24 hr, starting from the addition of LPS. One hundred microliter aliquots of supernatant from each well were combined with 100 μl of Griess reagent (Sigma) in a 96-well plate and allowed to shake for 10 minutes before being read on the plate reader. The percent nitrite level for the treatments compared to the control was graphed.
# IL-1β = assay: LPS-induced IL-1β release in primary microglia, LUMINEX immunoassay; type: cell-based, mouse; conditions: apocynin 100 μM, LPS 24 hr
# Procedure: as §1, §2, §3
# [2] = Mito-apocynin 3 mg/kg oral gavage, sacrifice 7 days after last MPTP dose
molecule,measurement,setting,value
COc1cc(C(=O)NCC[P+](c2ccccc2)(c2ccccc2)c2ccccc2)ccc1O.[Br-] [Mito-apocynin],protection against subchronic MPTP-induced depletion of striatal dopac levels,[1]; [2],almost completely protected
same,protection against subchronic MPTP-induced depletion of striatal dopamine levels,[1]; [2],almost completely protected
"COc1cc(C(C)=O)ccc1O [apocynin, Apocynin, reference compound]",blocking LPS-induced release of IL-10,IL-10,also effective
same,protection against subchronic MPTP-induced depletion of striatal dopac levels,[1]; apocynin 20 mg/kg oral gavage,not
same,protection against subchronic MPTP-induced depletion of striatal dopamine levels,[1]; apocynin 20 mg/kg oral gavage,not
same,"effect on striatal neurotransmitters (dopamine, dopac)","[1]; apocynin at doses lower than 20 mg/kg, oral gavage",not effective
same,blocking LPS-induced release of TNF-α,TNF-α,also effective
same,blocking LPS-induced release of IL-12,IL-12,also effective
same,lifespan of G93A mice,G93A mice,markedly enhanced
same,EC50,"BV2 microglial cells; Mus musculus, BV-2 cells, LPS 1 μg/ml, non-linear regression of dose response curve, read-out: EC50, block of LPS-induced iNOS activation (nitrite level)",61.3 µM
same,blocking LPS-induced release of IL-1β,IL-1β,also effective
Diapocynin diacetate,LPS-induced NOS-2 (percent nitrite level compared to control),"BV2 microglial cells; BV2 cells, LPS 1 μg/ml 24 hr",suppresses
